Test results reported in patent US20260022340A1, “ATRIOVENTRICULAR NODE-LIKE PACEMAKER CELLS” (UNIVERSITY HEALTH NETWORK, priority 2022, published 2026).

System: human cardiac progenitors
Experiment: Induction of AVN phenotype in hPSC-derived cardiac progenitors, flow cytometry for NKX2-5+TBX3+ myocytes at day 20
Assay type: cell-based
Protocol: First, hPSCs were incubated in media containing BMP and Rho-associated protein kinase (ROCK) inhibitor on an orbital shaker to generate embryoid bodies (differentiation protocol day: 0). Then, cardiogenic mesoderm was induced using media containing 1-100 ng/mL BMP4, 1-100 ng/ml Activin A, 1-20 ng/mL bFGF, and 1-10 μM CHIR-99021 (differentiation protocol day: 1). […] The cardiogenic mesoderm can be analyzed at day 3/4 of differentiation for the expression of PDGFRa, RALDH2 and CD235a, and should be PDGFRa+RALDH2− and CD235a^low (max 50% positive).
Next, cardiac progenitors were induced using media that contained 0.5-10 μM IWP2 and 1-20 ng/mL VEGF (differentiation protocol day: 3). At this stage, the cardiac progenitors may be a mixed population of early stage (NKX2-5^−) and late stage (NKX2-5^+) cardiac progenitors which may be contractile or not. […] Culture was continued in media that contained 5 ng/mL VEGF until day 12 of the differentiation protocol. The culture was maintained until day 20 of the differentiation protocol before analysis. […] FIGS. 3B, 4B, 5A and 5B present the percentage of NKX2-5^+ TBX3^+ myocytes of total cells present in the culture.
A NKX2-5:GFP+TBX3:tdTomato+ transgenic double reporter hPSC line was cultured using the protocol described in Example 1. AVNLPCs were identified and isolated using Fluorescence-activated cell sorting (FACS), based on their expression of NKX2-5 and TBX3 and the associated expression of the fluorescent reporter (FIG. 2).

## Cc1c[nH]c(-c2cnc(NCCNc3ccc(C#N)cn3)nc2-c2ccc(Cl)cc2Cl)n1 [CHIR-99021]
9 uM CHIR from day 8-11, day 11-15 or day 15-18, n=5 (FIG. 3B)
  Change in NKX2-5+TBX3+ AVNLPCs of total cell population at day 20: significant increase
3-15 μM used
  CHIR-99021 concentration at which relatively more NKX2-5+TBX3+ myocytes were induced: 12 to 15 µM
Treatment day 8-11, day 20 analysis, n=5 (FIG. 4B)
  CHIR concentration giving highest percentage of NKX2-5+TBX3+ AVNLPCs: 12 to 15 µM
